Conditions: liquid nasal compositions, common storage conditions
From the text: The present inventors have accordingly conducted extensive researches for finding a suitable stabilizing agent.

Compound: N.N.O=C(O)C(O)C(O)C(=O)O (stereo not shown) [ammonium tartrate]
- stabilizing activity on liquid compositions containing polypeptides: satisfactory stabilizing agent

From patent publication US5124315A, “Liquid pharmaceutical composition for nasal administration containing a polypeptide as active ingredient” (Phideatech S.R.L., priority 1991, dated 1992)
